In ChEMBL document CHEMBL1933014, “Synthesis and antihyperglycemic evaluation of new 2,4-thiazolidinediones having biodynamic aryl sulfonylurea moieties” (2012):

system: Rattus norvegicus; assay: Antihyperglycemic activity in normal albino rat sucrose-loaded model assessed as inhibition of postprandial rise in blood glucose level at 100 mg/kg, po pretreated 30 mins before sucrose challenge measured for 2 hrs during oral glucose tolerance test; format: functional; set-up: scale not given: the % may be the effect or the level left

| SMILES | Activity |
| --- | --- |
| Cc1ccc(S(=O)(=O)NC(=O)NCC2SC(=O)NC2=O)cc1 (centres undefined) | 11.5% |
| O=C(NCC1SC(=O)NC1=O)NS(=O)(=O)c1ccccc1 (centres undefined) | 15.8% |
| O=C(NCC1SC(=O)NC1=O)NS(=O)(=O)c1ccc(Cl)cc1 (centres undefined) | 17.2% |
| O=C(NCC1SC(=O)NC1=O)NS(=O)(=O)c1ccc(F)cc1 (centres undefined) | 10.7% |
| O=C(NCC1SC(=O)NC1=O)NS(=O)(=O)c1ccc(Cl)cc1Cl (centres undefined) | 14.3% |
| O=C(NCC1SC(=O)NC1=O)NS(=O)(=O)c1cc(Cl)ccc1Cl (centres undefined) | 16.5% |
| O=C(NCC1SC(=O)NC1=O)NS(=O)(=O)c1ccc(Br)cc1Br (centres undefined) | 8.66% |
| O=C(NCC1SC(=O)NC1=O)NS(=O)(=O)c1ccc(Br)cc1 (centres undefined) | 9.44% |
| CN(C)C(=N)NC(=N)N [METFORMIN] | 27% |
